Test results published in PubChem BioAssay AID588618 (The Scripps Research Institute Molecular Screening Center, 2011).

target: Early growth response protein 1 (Homo sapiens) (UniProt P18146); assay: EGR1 protein level change in DLD-1 cells, late-stage follow-up, counter-screen for KLF5 inhibitor project, DLD1 cells, chemiluminescent western blot, powder samples (AID 588618); conditions: 24 h, at 10 µM, hits give high values
Sequence (P18146 whole entry, looked up): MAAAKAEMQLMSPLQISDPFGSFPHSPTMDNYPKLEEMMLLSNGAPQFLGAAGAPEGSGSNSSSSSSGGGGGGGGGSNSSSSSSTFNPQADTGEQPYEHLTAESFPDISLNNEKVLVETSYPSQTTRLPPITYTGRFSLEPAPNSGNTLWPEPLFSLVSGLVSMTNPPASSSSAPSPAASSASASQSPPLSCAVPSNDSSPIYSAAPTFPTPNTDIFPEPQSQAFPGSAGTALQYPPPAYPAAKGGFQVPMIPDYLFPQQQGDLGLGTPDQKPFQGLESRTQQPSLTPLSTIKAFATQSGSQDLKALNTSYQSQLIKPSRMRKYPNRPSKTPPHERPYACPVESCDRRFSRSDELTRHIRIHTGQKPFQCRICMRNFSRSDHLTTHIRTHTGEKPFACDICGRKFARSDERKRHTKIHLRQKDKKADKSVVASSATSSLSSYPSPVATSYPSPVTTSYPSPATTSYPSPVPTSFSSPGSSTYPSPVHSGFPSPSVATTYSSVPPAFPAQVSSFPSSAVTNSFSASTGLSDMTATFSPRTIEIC

| Compound | inhibition [%] |
| --- | --- |
| CN(C(=O)COC(=O)/C=C/c1cccc([N+](=O)[O-])c1)C1CCS(=O)(=O)C1 (stereo not drawn) | 19.4 |
| CN(C(=O)CNC(=O)/C=C/c1cccc(Cl)c1)C1CCS(=O)(=O)C1 (stereo not drawn) | 14.3 |
| CN(C(=O)CNC(=O)/C=C/c1cccc(Cl)c1)C1CCS(=O)(=O)CC1 | 21.1 |
